Assay results published in patent US8192962B2, “Processes for detecting toxic substances” (Daikin Industries, Ltd., priority 2001, dated 2012).

System: Unknown protein yeast genes
Test: DNA chip mRNA expression in yeast, unknown protein yeast genes (Table 1)
Format: cell-based, Saccharomyces cerevisiae S288C
Summary of the method: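 Untreated cultures served as reference for log-phase S288C yeast given a growth-inhibiting, non-lethal toxicant dose for 2 h at 25° C. in YPD. Gene expression was measured on a whole-genome DNA chip from Cy3/Cy5-labeled cDNA.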

CCCCC[C@H](O)CC(=O)CCc1ccc(O)c(OC)c1 [(13), gingerol]
The level of expressed mRNA in the presence of chemical substance/The level of expressed mRNA in the absence of chemical substance (yeast gene YLR415C): 1.0 | The level of expressed mRNA in the presence of chemical substance/The level of expressed mRNA in the absence of chemical substance (yeast gene YLR421C, incubated two hours with substance): 1.6 | The level of expressed mRNA in the presence of chemical substance/The level of expressed mRNA in the absence of chemical substance (yeast gene YLR427W): 2.5 | The level of expressed mRNA in the presence of chemical substance/The level of expressed mRNA in the absence of chemical substance (yeast gene YLR460C): 0.7 | The level of expressed mRNA in the presence of chemical substance/The level of expressed mRNA in the absence of chemical substance (yeast gene YML013W): 1.2 | The level of expressed mRNA in the presence of chemical substance/The level of expressed mRNA in the absence of chemical substance (yeast gene YML029W): 2.0 | The level of expressed mRNA in the presence of chemical substance/The level of expressed mRNA in the absence of chemical substance (yeast gene YML041C): 1.2 | The level of expressed mRNA in the presence of chemical substance/The level of expressed mRNA in the absence of chemical substance (yeast gene YML079W): 1.6 | The level of expressed mRNA in the presence of chemical substance/The level of expressed mRNA in the absence of chemical substance (yeast gene YMR068W): 1.4 | The level of expressed mRNA in the presence of chemical substance/The level of expressed mRNA in the absence of chemical substance (yeast gene YMR071C): 1.3 | The level of expressed mRNA in the presence of chemical substance/The level of expressed mRNA in the absence of chemical substance (yeast gene YMR102C, incubated two hours with chemical substance): 4.4 | The level of expressed mRNA in the presence of chemical substance/The level of expressed mRNA in the absence of chemical substance (yeast gene YMR160W): 1.6 | The level of expressed mRNA in the presence of chemical substance/The level of expressed mRNA in the absence of chemical substance (yeast gene YMR258C, incubated two hours with substance): 1.6 | The level of expressed mRNA in the presence of chemical substance/The level of expressed mRNA in the absence of chemical substance (yeast gene YMR315W): 2.5 | The level of expressed mRNA in the presence of chemical substance/The level of expressed mRNA in the absence of chemical substance (yeast gene YNL026W): 1.7 | The level of expressed mRNA in the presence of chemical substance/The level of expressed mRNA in the absence of chemical substance (yeast gene YNL058C): 0.6 | The level of expressed mRNA in the presence of chemical substance/The level of expressed mRNA in the absence of chemical substance (yeast gene YNL063W): 1.5 | The level of expressed mRNA in the presence of chemical substance/The level of expressed mRNA in the absence of chemical substance (yeast gene YNL176C): 0.6 | The level of expressed mRNA in the presence of chemical substance/The level of expressed mRNA in the absence of chemical substance (yeast gene YNL194C): 1.5 | The level of expressed mRNA in the presence of chemical substance/The level of expressed mRNA in the absence of chemical substance (yeast gene YNL200C): 1.1 | The level of expressed mRNA in the presence of chemical substance/The level of expressed mRNA in the absence of chemical substance (yeast gene YNL253W): 1.1 | The level of expressed mRNA in the presence of chemical substance/The level of expressed mRNA in the absence of chemical substance (yeast gene YNL276C): 1.5 | The level of expressed mRNA in the presence of chemical substance/The level of expressed mRNA in the absence of chemical substance (yeast gene YNL300W, incubated two hours with chemical substance): 0.7 | The level of expressed mRNA in the presence of chemical substance/The level of expressed mRNA in the absence of chemical substance (yeast gene YNR051C): 2.1 | The level of expressed mRNA in the presence of chemical substance/The level of expressed mRNA in the absence of chemical substance (yeast gene YOL026C): 1.2 | The level of expressed mRNA in the presence of chemical substance/The level of expressed mRNA in the absence of chemical substance (yeast gene YOL031C): 2.4 | The level of expressed mRNA in the presence of chemical substance/The level of expressed mRNA in the absence of chemical substance (yeast gene YOL084W, incubated two hours with substance): 6.4 | The level of expressed mRNA in the presence of chemical substance/The level of expressed mRNA in the absence of chemical substance (yeast gene YOL101C): 0.2 | The level of expressed mRNA in the presence of chemical substance/The level of expressed mRNA in the absence of chemical substance (yeast gene YOR022C): 1.7 | The level of expressed mRNA in the presence of chemical substance/The level of expressed mRNA in the absence of chemical substance (yeast gene YOR087W): 1.2 | The level of expressed mRNA in the presence of chemical substance/The level of expressed mRNA in the absence of chemical substance (yeast gene YOR138C): 1.8 | The level of expressed mRNA in the presence of chemical substance/The level of expressed mRNA in the absence of chemical substance (yeast gene YOR253W): 0.5 | The level of expressed mRNA in the presence of chemical substance/The level of expressed mRNA in the absence of chemical substance (yeast gene YOR267C): 1.4 | The level of expressed mRNA in the presence of chemical substance/The level of expressed mRNA in the absence of chemical substance (yeast gene YOR338W): 1.4 | The level of expressed mRNA in the presence of chemical substance/The level of expressed mRNA in the absence of chemical substance (yeast gene YOR391C): 2.3 | The level of expressed mRNA in the presence of chemical substance/The level of expressed mRNA in the absence of chemical substance (yeast gene YPL005W): 1.2 | The level of expressed mRNA in the presence of chemical substance/The level of expressed mRNA in the absence of chemical substance (yeast gene YPL087W, incubated two hours with chemical substance): 4.4 | The level of expressed mRNA in the presence of chemical substance/The level of expressed mRNA in the absence of chemical substance (yeast gene YPL150W): 2.1 | The level of expressed mRNA in the presence of chemical substance/The level of expressed mRNA in the absence of chemical substance (yeast gene YPL152W): 1.4 | The level of expressed mRNA in the presence of chemical substance/The level of expressed mRNA in the absence of chemical substance (yeast gene YPL168W): 1.0 | The level of expressed mRNA in the presence of chemical substance/The level of expressed mRNA in the absence of chemical substance (yeast gene YPL180W): 1.5 | The level of expressed mRNA in the presence of chemical substance/The level of expressed mRNA in the absence of chemical substance (yeast gene YPL188W): 0.9 | The level of expressed mRNA in the presence of chemical substance/The level of expressed mRNA in the absence of chemical substance (yeast gene YPL221W): 1.0 | The level of expressed mRNA in the presence of chemical substance/The level of expressed mRNA in the absence of chemical substance (yeast gene YPL225W): 0.8 | The level of expressed mRNA in the presence of chemical substance/The level of expressed mRNA in the absence of chemical substance (yeast gene YPL280W): 2.4 | The level of expressed mRNA in the presence of chemical substance/The level of expressed mRNA in the absence of chemical substance (yeast gene YPR049C): 1.6 | The level of expressed mRNA in the presence of chemical substance/The level of expressed mRNA in the absence of chemical substance (yeast gene YPR146C): 1.3 | The level of expressed mRNA in the presence of chemical substance/The level of expressed mRNA in the absence of chemical substance (yeast gene YPR148C): 1.2 | The level of expressed mRNA in the presence of chemical substance/The level of expressed mRNA in the absence of chemical substance (yeast gene YPR158W, incubated two hours with substance): 1.6 | The level of expressed mRNA in the presence of chemical substance/The level of expressed mRNA in the absence of chemical substance (yeast gene YPR172W): 1.3
